Reference: PubChem BioAssay (NCI)
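Compound exposure: 48 hours, 5 concentrations, 96-well plates. TGI marks complete inhibition of growth.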

Key:
Assay in all cases: DTP human tumour cell line panel, 48 h
SN12C renal = tested on: SN12C renal
SW-620 colon = tested on: SW-620 colon
RPMI-8226 leukemia = tested on: RPMI-8226 leukemia
K-562 leukemia = tested on: K-562 leukemia
786-0 renal = tested on: 786-0 renal
SK-OV-3 ovarian = tested on: SK-OV-3 ovarian
UACC-257 melanoma = tested on: UACC-257 melanoma
IGROV1 ovarian = tested on: IGROV1 ovarian
ACHN renal = tested on: ACHN renal
HT29 colon = tested on: HT29 colon
SF-539 CNS = tested on: SF-539 CNS
MCF7 breast = tested on: MCF7 breast
A549 NSCLC = tested on: A549 NSCLC
OVCAR-4 ovarian = tested on: OVCAR-4 ovarian
SF-295 CNS = tested on: SF-295 CNS
A498 renal = tested on: A498 renal
HOP-62 NSCLC = tested on: HOP-62 NSCLC
CCRF-CEM leukemia = tested on: CCRF-CEM leukemia
U251 CNS = tested on: U251 CNS
NCI-H226 lung = tested on: NCI-H226 lung
HOP-92 NSCLC = tested on: HOP-92 NSCLC
HCT-15 colon = tested on: HCT-15 colon
CAKI-1 renal = tested on: CAKI-1 renal
MOLT-4 leukemia = tested on: MOLT-4 leukemia
T-47D breast = tested on: T-47D breast
SK-MEL-2 melanoma = tested on: SK-MEL-2 melanoma
PC-3 prostate = tested on: PC-3 prostate
NCI-H460 lung = tested on: NCI-H460 lung
SNB-75 CNS = tested on: SNB-75 CNS
NCI/ADR-RES ovarian = tested on: NCI/ADR-RES ovarian
COLO 205 colon = tested on: COLO 205 colon
RXF 393 renal = tested on: RXF 393 renal
UO-31 renal = tested on: UO-31 renal
KM12 colon = tested on: KM12 colon
HS 578T breast = tested on: HS 578T breast
M14 melanoma = tested on: M14 melanoma
MDA-N = tested on: MDA-N
SK-MEL-5 melanoma = tested on: SK-MEL-5 melanoma
DU-145 prostate = tested on: DU-145 prostate
UACC-62 melanoma = tested on: UACC-62 melanoma
MDA-MB-231 breast = tested on: MDA-MB-231 breast
NCI-H522 lung = tested on: NCI-H522 lung
HCT-116 colon = tested on: HCT-116 colon
HCC-2998 colon = tested on: HCC-2998 colon
MDA-MB-435 = tested on: MDA-MB-435
HL-60(TB) leukemia = tested on: HL-60(TB) leukemia
NCI-H23 lung = tested on: NCI-H23 lung
SNB-19 CNS = tested on: SNB-19 CNS
LOX IMVI melanoma = tested on: LOX IMVI melanoma
SF-268 CNS = tested on: SF-268 CNS
EKVX NSCLC = tested on: EKVX NSCLC
OVCAR-5 ovarian = tested on: OVCAR-5 ovarian
OVCAR-8 ovarian = tested on: OVCAR-8 ovarian
BT-549 breast = tested on: BT-549 breast
SR leukemia = tested on: SR leukemia
SK-MEL-28 melanoma = tested on: SK-MEL-28 melanoma
MALME-3M melanoma = tested on: MALME-3M melanoma
TK-10 renal = tested on: TK-10 renal
OVCAR-3 ovarian = tested on: OVCAR-3 ovarian

Measured: TGI

CCCn1c(=O)c2ccccc2[n+]2c(-c3ccc([N+](=O)[O-])cc3)csc12
94.6 µM: SNB-75 CNS
82.5 µM: CCRF-CEM leukemia
80.8 µM: HOP-62 NSCLC
78.3 µM: KM12 colon
55.7 µM: RPMI-8226 leukemia
83.4 µM: OVCAR-8 ovarian
57.9 µM: HL-60(TB) leukemia
69.4 µM: K-562 leukemia
97.3 µM: UO-31 renal
79.9 µM: MOLT-4 leukemia
55.3 µM: RXF 393 renal
49.2 µM: SF-539 CNS
36.5 µM: NCI/ADR-RES ovarian
76.3 µM: 786-0 renal
51.3 µM: LOX IMVI melanoma
45.7 µM: SK-MEL-5 melanoma
> 100 µM: SN12C renal | SW-620 colon | SK-OV-3 ovarian | UACC-257 melanoma | IGROV1 ovarian | ACHN renal | HT29 colon | MCF7 breast | A549 NSCLC | OVCAR-4 ovarian | SF-295 CNS | U251 CNS | NCI-H226 lung | HOP-92 NSCLC | HCT-15 colon | CAKI-1 renal | T-47D breast | SK-MEL-2 melanoma | PC-3 prostate | NCI-H460 lung | COLO 205 colon | HS 578T breast | M14 melanoma | MDA-N | DU-145 prostate | UACC-62 melanoma | MDA-MB-231 breast | HCT-116 colon | HCC-2998 colon | MDA-MB-435 | NCI-H23 lung | SNB-19 CNS | SF-268 CNS | EKVX NSCLC | OVCAR-5 ovarian | BT-549 breast
74.4 µM: A498 renal
45.5 µM: NCI-H522 lung

OCC(Cn1cncn1)(c1ccc(F)cc1F)n1cncn1 (stereo not given)
> 100 µM: SN12C renal | SW-620 colon | RPMI-8226 leukemia | SR leukemia | K-562 leukemia | 786-0 renal | SK-OV-3 ovarian | SK-MEL-28 melanoma | UACC-257 melanoma | IGROV1 ovarian | ACHN renal | HT29 colon | SF-539 CNS | MCF7 breast | MALME-3M melanoma | A549 NSCLC | TK-10 renal | OVCAR-3 ovarian | SF-295 CNS | A498 renal | HOP-62 NSCLC | CCRF-CEM leukemia | U251 CNS | NCI-H226 lung | HCT-15 colon | CAKI-1 renal | MOLT-4 leukemia | T-47D breast | SK-MEL-2 melanoma | PC-3 prostate | NCI-H460 lung | SNB-75 CNS | NCI/ADR-RES ovarian | COLO 205 colon | RXF 393 renal | UO-31 renal | KM12 colon | HS 578T breast | M14 melanoma | MDA-N | SK-MEL-5 melanoma | DU-145 prostate | UACC-62 melanoma | MDA-MB-231 breast | NCI-H522 lung | HCT-116 colon | HCC-2998 colon | MDA-MB-435 | HL-60(TB) leukemia | NCI-H23 lung | SNB-19 CNS | LOX IMVI melanoma | SF-268 CNS | OVCAR-5 ovarian | OVCAR-8 ovarian | BT-549 breast
